Patent US10472366B2, “Glucuronide prodrugs of tofacitinib” (THERAVANCE BIOPHARMA R&D IP, LLC, priority 2017, dated 2019)
“And” between values parts separate entries of the source, which are not always exact repeats. Equal entries are not always repeated.

What was measured:
[1] = test system: β-glucuronidase in rat colon feces; assay: Rat colon fecal homogenate stability assay; type: in vitro ADME; conditions: in vitro half-life in rat fecal supernatant-homogenate, anaerobic, 10 μM substrate, individual values when assay repeated; for half-life at 10 μM: male, rat, rat colon fecal supernatant-homogenate, read-out: T½
From the text: The compounds of the present invention contain a glucuronide prodrug moiety that is expected to be cleaved by β-glucuronidase enzyme. The objective of this assay was to determine the half-life for compounds of the present invention in the presence of β-glucuronidase in rat colon feces.
Following sacrifice of a naïve male rat (˜300 g) by cardiac puncture exsanguination, the colon was ligated and removed to an anaerobic chamber (AS-580, Anaerobe Systems). The fecal content was removed within the chamber and was diluted 1:10 with phosphate buffer (1 gram fecal content to 9 mL phosphate buffer) and the resulting mixture was homogenized using a handheld Omni Tissue Master. The fecal homogenate was centrifuged at 2000 g for 10 min to remove bulk material and the supernatant was removed and used for the incubations.
DMSO stock solutions (10 mM) of the test compounds and sulfasalazine (control) were prepared. Sulfasalazine was used as a positive control to confirm viability of the fecal supernatant-homogenate (see, e.g., Azad Khan et al., Clinical Science (1983) 64, 349-354). If the in vitro half-life (T½) for sulfasalazine in the fecal sample was less than 30 min, the fecal sample was deemed to be viable and in true anaerobic conditions. However, if the T½ for sulfasalazine was greater than 30 min, the fecal sample was typically contaminated with oxygen and was not viable. The final substrate concentration of each assay was 10 μM. Reactions were started by adding a 5 μL aliquot of diluted test compound stock solution into 300 μL of rat fecal supernatant-homogenate. At 0, 15, 30, 60, 90, and 120 min post reaction initiation, a 50 μL aliquot was removed and added to a mixture of 200 μL of acetonitrile with 3% formic acid and an internal standard. All samples were centrifuged at 2000 g for 10 min after which 50 μL of supernatant was diluted into 150 μL of water for analysis on an LC-MS system. In vitro half-lives (T½) for the test compounds were calculated as follows: T½=0.693/elimination rate constant. When the assay was performed more than once, individual values are reported.

[2] = Oral pharmacokinetics in rat assay; type: in vivo; conditions: liberated tofacitinib AUC0-6 h in colon tissue; male Sprague Dawley rats, single PO dose 5 mg/kg of test compound
Protocol: When cleaved by β-glucuronidase enzyme, the compounds of the present invention release tofacitinib. The object of this assay was to determine tofacitinib exposure (AUC0-6 h) in colon tissue and plasma following oral dosing of compounds of the present invention in rats.
Male Sprague Dawley rats (n=2/time point) received a single PO oral gavage dose (5 mg/kg in 1:20 mixture of 5% DMSO and 1% HPMC) of test compounds. At 0.5, 1, 3, 6 and 24 h post-dosing, rats were sacrificed via cardiac puncture exsanguination, and blood samples were taken and placed into sample tubes (Microtainer, Becton, Dickinson and Company) containing sodium fluoride and then placed on ice. Plasma was obtained by centrifugation (Eppendorf centrifuge, 5804R) for 4 minutes at approximately 12,000 rpm at 4° C.
The colons were removed from exsanguinated rats and the colon contents gently removed. The colons were flushed with saline and patted dry. The colons were then homogenized in 3× the weight of sterile water using a tissue homogenizer (Precellys homogenizer, Bertin Instruments) at approximately 4° C. All samples were stored at −80° C. for later bioanalysis.
The concentration of tofacitinib in each sample was determined as follows: the plasma and colon samples were vortexed, combined with a 50 μL aliquot of rat plasma, extracted with 200 μL of ACN containing an internal standard and quantified against the internal standard by LC-MS. An area-under-the-concentration curve (AUC0-6 h) was calculated for plasma and colon test compound and liberated tofacitinib. A key parameter to assess suitability for localized delivery of tofacitinib to the colon was the tofacitinib colon to plasma AUC ratio.

[3] = test system: oxazolone-induced colitis; assay: Mouse model of oxazolone-induced colitis; type: in vivo; conditions: PO
Protocol: Oxazolone-induced colitis is an experimental model that has a histological resemblance to human ulcerative colitis (Heller et al. […], 2002, 17, 629-638). Adult BALB/C mice (25-28 g, 9-12 weeks of age) from BioNeeds (India) were used in the assay. On Day 1, animals were lightly anesthetized with isoflurane and the hairs between the shoulder were carefully removed. Oxazolone (6 mg/mouse, 100 μL, 4:1 acetone:olive oil formulation) or vehicle solution was slowly applied to the bare skin patch to induce skin sensitization. Six days after skin sensitization, the mice were fasted overnight and then anesthetized with ketamine and xylazine administered intraperitoneally. A 1 mL syringe filled with oxazolone solution (0.5 mg/50 μL/mouse in 50% ethanol) or 50% ethanol/saline was inserted carefully ˜3.8 cm into the colon of the mouse. Animals were kept in a head down position and oxazolone or vehicle solution was rectally instilled very slowly over a minute. The mice were held vertically (head down) for another minute to ensure that the entire oxazolone or vehicle solution remained inside the colon. Test compound treatment (PO, BID or TID) or vehicle was initiated the evening prior to the oxazolone intrarectal (IR) challenge. On both first (Day 1) and second (Day 2) days post-oxazolone IR challenge, the Disease Activity Index (DAI) was assessed by treatment-blinded experimenters for each mouse, according to the following subscores: stool consistency (0, normal; 2, loose; 4, diarrhea), gross bleeding and hemoccult test (0, absence; 2, blood tinged; 4, overt blood presence), and weight loss (0, none; 1, 1%-5%; 2, 6^%-10%; 3, 11%-15%; 4, more than 15%); DAI=average of (stool consistency+blood presence+weight loss scores).
An area-under-the-curve (AUC) calculation based on total DAI scores was performed to track disease progression during the course of the experiment. AUC for each experimental group was calculated as: AUC=[(Day 1−Day 0)*Average (DAI Score of Day 0 & Day 1)]+[(Day 2−Day 1)*Average (DAI Score of Day 1 & Day 2)]. A Student's t-test compared the DAI AUC score of the vehicle/vehicle and vehicle/oxazolone groups to evaluate whether disease was induced following oxazolone treatment. This was followed by a one-way analysis of variance (ANOVA), with Dunnett's post hoc test, to compare the DAI AUC score of the vehicle/oxazolone and test compound/oxazolone groups. Statistical significance was defined by an α level set at p<0.05.

[4] = Oral pharmacokinetics in mouse assay; type: in vivo; conditions: liberated tofacitinib AUC0-6 h in colon tissue; male Balb/c mice, single PO dose 5 mg/kg of test compound
Protocol: When cleaved by β-glucuronidase enzyme, the compounds of the present invention release tofacitinib. The object of this assay was to determine tofacitinib exposure (AUC0-6 h) in colon tissue and plasma following oral dosing of compounds of the present invention in mice.
Male Balb/c mice (n=2/time point) received a single PO oral gavage dose (5 mg/kg in 1:20 mixture of 5% DMSO and 1% HPMC) of the test compound. At 2 h and 6 h post-dosing, mice were sacrificed via cardiac puncture exsanguination and blood samples were taken and placed into sample tubes (Microtainer, Becton, Dickinson and Company) containing sodium fluoride and then placed on ice. Plasma was obtained by centrifugation (Eppendorf centrifuge, 5804R) for 4 min at approximately 12,000 rpm at 4° C.
The colons were removed from the exsanguinated mice and the colon fecal contents were gently removed. The colons were flushed with saline and patted dry. […]
The concentration of tofacitinib in each sample was determined as follows: the plasma and colon homogenate samples were vortexed, combined with a 50 μL aliquot of rat plasma, extracted with 200 μL of ACN containing an internal standard and quantified against the internal standard by LC-MS. An area-under-the-concentration curve (AUC0-6 h) was calculated for plasma and colon test compound and liberated tofacitinib. […]

[5] = 3, 10 and 30 mg/kg, BID, BALB/C mice, vs vehicle/oxazolone, p<0.05

T½ [1]	half-life at 10 μM [1]	Colon AUC [2]	Compound	reversal of oxazolone-induced colitis (DAI AUC score) [3, 5]	other results
16 min and < 15 min	14 min	20.2 µg·h/g	C[C@@H]1CCN(C(=O)CC#N)C[C@@H]1N(C)c1ncnc2c1ccn2C(=O)N(C)CCN(C)C(=O)O[C@@H]1O[C@H](C(=O)O)[C@@H](O)[C@H](O)[C@H]1O [Compound II-1, (2S,3S,4S,5R,6S)-6-(((2-(4-(((3R,4R)-1-(2-Cyanoacetyl)-4-methylpiperidin-3-yl)(methyl)amino)-N-methyl-7H-pyrrolo[2,3-d]pyrimidine-7-carboxamido)ethyl)(methyl)carbamoyl)oxy)-3,4,5-trihydroxytetrahydro-2H-pyran-2-carboxylic Acid]	–	reversal of oxazolone-induced colitis (DAI AUC score) ([3]; 3 and 30 mg/kg, BID, BALB/C mice, vs vehicle/oxazolone, p<0.05): statistically significant reversal
–	2 min	–	C[C@@H]1CCN(C(=O)CC#N)C[C@@H]1N(C)c1ncnc2c1ccn2C(=O)N(C)c1cc([N+](=O)[O-])ccc1O[C@@H]1O[C@H](C(=O)O)[C@@H](O)[C@H](O)[C@H]1O [Compound III-1, (2S,3S,4S,5R,6S)-6-(2-(4-(((3R,4R)-1-(2-Cyanoacetyl)-4-methylpiperidin-3-yl)(methyl)amino)-N-methyl-7H-pyrrolo[2,3-d]pyrimidine-7-carboxamido)-4-nitrophenoxy)-3,4,5-trihydroxytetrahydro-2H-pyran-2-carboxylic Acid]	–	Colon AUC [4]: 6.07 µg·h/g; reversal of oxazolone-induced colitis (DAI AUC score) ([3]; 30 mg/kg, BID, BALB/C mice, vs vehicle/oxazolone, p<0.05): statistically significant reversal
29 min and < 15 min	20 min	33.2 µg·h/g	C[C@@H]1CCN(C(=O)CC#N)C[C@@H]1N(C)c1ncnc2c1ccn2C(=O)N(C)c1ccccc1O[C@@H]1O[C@H](C(=O)O)[C@@H](O)[C@H](O)[C@H]1O [Compound III-2, (2S,3S,4S,5R,6S)-6-(2-(4-(((3R,4R)-1-(2-Cyanoacetyl)-4-methylpiperidin-3-yl)(methyl)amino)-N-methyl-7H-pyrrolo[2,3-d]pyrimidine-7-carboxamido)phenoxy)-3,4,5-trihydroxytetrahydro-2H-pyran-2-carboxylic Acid]	statistically significant reversal	–
<15, <15 min	< 15 min	–	C[C@@H]1CCN(C(=O)CC#N)C[C@@H]1N(C)c1ncnc2c1ccn2C(=O)N(C)Cc1ccccc1O[C@@H]1O[C@H](C(=O)O)[C@@H](O)[C@H](O)[C@H]1O [Compound III-6, (2S,3S,4S,5R,6S)-6-(2-((4-(((3R,4R)-1-(2-Cyanoacetyl)-4-methylpiperidin-3-yl)(methyl)amino)-N-methyl-7H-pyrrolo[2,3-d]pyrimidine-7-carboxamido)methyl)phenoxy)-3,4,5-trihydroxytetrahydro-2H-pyran-2-carboxylic Acid]	did not produced a statistically significant effect	–
1 min and < 15 min	–	5.15 µg·h/g	C[C@@H]1CCN(C(=O)CC#N)C[C@@H]1N(C)c1ncnc2c1ccn2C(=O)N(C)Cc1ccccc1NC(=O)O[C@@H]1O[C@H](C(=O)O)[C@@H](O)[C@H](O)[C@H]1O [Compound IV-1]	–	–
–	–	–	C[C@@H]1CCN(C(=O)CC#N)C[C@@H]1N(C)c1ncnc2[nH]ccc12 [tofacitinib, 3-((3R,4R)-4-methyl-3-(methyl(7H-pyrrolo[2,3-d]pyrimidin-4-yl)amino)piperidin-1-yl)-3-oxopropanenitrile]	–	reversal of oxazolone-induced colitis (DAI AUC score) ([3]; positive control, 60 mg/kg, experiment with Compound 11-6): did produce a statistically significant reversal; reversal of oxazolone-induced colitis (DAI AUC score) ([3]; positive control, 30 and 60 mg/kg, BID, experiment with Compound II-1): statistically significant reversal; reversal of oxazolone-induced colitis (DAI AUC score) ([3]; positive control, 30 and 60 mg/kg, BID, experiment with Compound III-1): did not produce a statistically significant reversal; reversal of oxazolone-induced colitis (DAI AUC score) ([3]; positive control, 30 and 60 mg/kg, BID, experiment with Compound III-2): statistically significant reversal
